Measurements taken from patent publication US6262119A, “Methods of treating immunopathologies using polyunsaturated fatty acids” (priority 1996, dated 2001).
Like-named read-outs stand apart in the source and are kept apart here.

Legend:
[1] = test system: peripheral blood mononuclear cell proliferation; assay: Mononuclear cell proliferation assay (thymidine incorporation); type: cell-based, human; details: for % INHIBITION OF INDUCED PROLIFERATION AT 20 μM PUFA: mitogen-induced PBMC proliferation, one experiment in duplicate, representative of 4; for inhibition at 20 µM: Homo sapiens, read-out: % INHIBITION OF PROLIFERATION
Experimental: Mononuclear Cell Proliferation Assays
Mononuclear cells were separated from peripheral blood of normal human donors as described by Ferrante and Thong (1980, J. Immunol. Methods 36:109)). The mononuclear cells were resuspended in RPMI-1640 containing 20% human AB serum and placed into 96 well microtrays (50 μl per well, cell density 4×10^6 cells/ml). Fatty acid ([…]) was then added in 50ul and pre-incubated with the cells for 30 min at 37° C. in 5% CO2. Mitogen (PHA, ConA, PWM, Staph. aureus) was then added in 100 μl and the cells incubated for 66 hours at 37° C. in 5% CO2 before the addition of tritiated thymidine (1 μCi/well). After a total of 72 h in culture the cells were harvested and proliferation (thymidine incorporation) and supernatant's assayed for the presence of cytokines.

TNFα = assay: PHA-induced TNFα production (ELISA of mononuclear cell supernatants); type: cell-based; details: Homo sapiens
Experimental: (§1) Fatty acid (66pmn) was then added in 50ul and pre-incubated with the cells for 30 min at 37° C. in 5% CO2. Mitogen (PHA, ConA, PWM, Staph. aureus) was then added in 100 μl and the cells incubated for 66 hours at 37° C. in 5% CO2 before the addition of tritiated thymidine (1 μCi/well). After a total of 72 h in culture the cells were harvested and proliferation (thymidine incorporation) and supernatant's assayed for the presence of cytokines.
(§2) Cytokine levels in culture supernatants were determined by specific ELISA using anti-cytokine antibodies. The following cytokine levels were determined TNFα, TNFβ, interferon-γ, IL-1β, IL-2.

DTH induced by SRBC = assay: Delayed type hypersensitivity against sheep red blood cells; type: in vivo, Female balb/c mice
Experimental: Delayed Type Hypersensitivity Against Sheep Red Blood Cells. Female balb/c mice were administered a priming dose of 100 μl of a 10% haematocrit of sheep red blood cells (SRBC) subcutaneously. Six days later mice were administered 25 μl of a 10% haematocrit of SRBC intradermally into the right hind footpad at time T-0 hrs. The subsequent anti-inflammatory response was evaluated by measuring the thickness of both hind footpads. Standard anti-inflammatory compounds, vehicle and test substances were administered intraperitonieally one hour prior to the SRBC challenge. PUFA compounds were administered in peanut oil.

psoriasis = details: drugs which block the cyclo-oxygenase pathway; cited from earlier work
interferon γ = assay: PHA-stimulated interferon γ production (ELISA of mononuclear cell supernatants); type: cell-based; details: Homo sapiens, amino acid conjugated PUFA at 20 μM (Table 6), read-out: % inhibition of IFNγ production
Experimental: as §1, §2

[2] = PHA-induced TNFα, PUFA at 20 μM (Table 4), read-out: % INHIBITION OF CYTOKINE PRODUCTION (TNFα)
[3] = PHA-stimulated, amino acid conjugated PUFA at 20 μM (Table 6), read-out: % inhibition of TNFα production

Compound | inhibition at 20 µM (TNFα; [2]) | inhibition at 20 µM (TNFα; [3]) | inhibition at 20 µM (interferon γ) | other results
CCCCCC(O)/C=C/C=C\C/C=C\CCCCCOCC(=O)O (stereo not drawn) [16-OH-β-oxa 21:3 (n-6), Z, Z, E-(13-Hydroxy-6,9,1-octadecatienyloxy) acetic acid] | 71% |  |  | % INHIBITION OF INDUCED PROLIFERATION AT 20 μM PUFA [1]: 50%; % paw volume relative to control (DTH induced by SRBC; 10 mg/kg, 3 hours post challenge): 95.03%; % paw volume relative to control (DTH induced by SRBC; 10 mg/kg, 6 hours post challenge): 81.63%; % paw volume relative to control (DTH induced by SRBC; 10 mg/kg, 24 hours post challenge): 86.91%; % paw volume relative to control (DTH induced by SRBC; 50 mg/kg, 3 hours post challenge): 65.01%; % paw volume relative to control (DTH induced by SRBC; 50 mg/kg, 6 hours post challenge): 48.95%; % paw volume relative to control (DTH induced by SRBC; 50 mg/kg, 24 hours post challenge): 51.02%; % paw volume relative to control (DTH induced by SRBC; 100 mg/kg, 3 hours post challenge): 55.86%; % paw volume relative to control (DTH induced by SRBC; 100 mg/kg, 6 hours post challenge): 40.94%; % paw volume relative to control (DTH induced by SRBC; 100 mg/kg, 24 hours post challenge): 31.97%
COc1ccc2c(c1)c(CC(=O)O)c(C)n2C(=O)c1ccc(Cl)cc1 [Indomethacin, reference compound] |  |  |  | % paw volume relative to control (DTH induced by SRBC; 30 mg/kg, 3 hours post challenge): 89.59%; % paw volume relative to control (DTH induced by SRBC; 30 mg/kg, 6 hours post challenge): 81.40%; % paw volume relative to control (DTH induced by SRBC; 30 mg/kg, 24 hours post challenge): 49.57%; exacerbations of psoriasis (psoriasis): induce exacerbations of psoriasis
C[C@]12C=CC(=O)C=C1CC[C@@H]1[C@@H]2[C@@H](O)C[C@@]2(C)[C@H]1CC[C@]2(O)C(=O)CO [Prednisolone, reference compound] |  |  |  | % paw volume relative to control (DTH induced by SRBC; 20 mg/kg, 3 hours post challenge): 58.35%; % paw volume relative to control (DTH induced by SRBC; 20 mg/kg, 6 hours post challenge): 60.12%; % paw volume relative to control (DTH induced by SRBC; 20 mg/kg, 24 hours post challenge): 100%
CCCCC/C=C\C/C=C\C/C=C\C/C=C\CCCC(=O)N[C@@H](CC(=O)O)C(=O)O [arachidonic acid-aspartic acid] |  | 38.3% | 68.4% | 
CCCCC/C=C\C/C=C\C/C=C\C/C=C\CCCC(=O)NCC(=O)O [arachidonic acid-glycine] |  | 26.6% | 35.9% | inhibition at 20 µM [1]: 8%
CC/C=C\C/C=C\C/C=C\C/C=C\C/C=C\C/C=C\CCC(=O)N[C@@H](CC(=O)O)C(=O)O [docosahexanoic acid-aspartic acid] |  | 17.4% | 8.3% | 
CC/C=C\C/C=C\C/C=C\C/C=C\C/C=C\C/C=C\CCC(=O)NCC(=O)O [docosahexanoic acid-glycine] |  | 16.2% | 44% | 
CC/C=C\C/C=C\C/C=C\C/C=C\C/C=C\CCCC(=O)N[C@@H](CC(=O)O)C(=O)O [eicosapentanoic acid-aspartic acid] |  | 17.1% | 66.1% | 
CC/C=C\C/C=C\C/C=C\C/C=C\C/C=C\CCCC(=O)NCC(=O)O [eicosapentanoic acid-glycine] |  | 11% | 68.2% | 
Cc1ccc(Cl)c(Nc2ccccc2C(=O)O)c1Cl [meclotenamate] |  |  |  | exacerbations of psoriasis (psoriasis): induce exacerbations of psoriasis
CCCCC1C(=O)N(c2ccccc2)N(c2ccccc2)C1=O [phenylbutazone] |  |  |  | exacerbations of psoriasis (psoriasis): induce exacerbations of psoriasis
CC/C=C\C/C=C\C/C=C\CCCCCCCC(=O)N[C@@H](CC(=O)O)C(=O)O [α-linolenic acid-aspartic acid] |  | 0% | 0% | inhibition at 20 µM ([1]; induced by PHA, PUFA at 20 μM): 7.3%
CC/C=C\C/C=C\C/C=C\CCCCCCCC(=O)NCC(=O)O [α-linolenic acid-glycine] |  | 29.3% | 14.5% | inhibition at 20 µM ([1]; induced by PHA, PUFA at 20 μM): 15.6%
CC/C=C\C/C=C\C/C=C\CCCCCCCCOCC(=O)O [β-oxa 21:3 (n-3), Z, Z, Z (9, 12, 15-Octadecatrienyloxy) acetic acid] | 39% |  |  | 
CCCCC/C=C\C/C=C\C/C=C\CCCCCOCC(=O)O [β-oxa 21:3 (n-6), Z, Z, Z (6,9, 12-Octadecatrienyloxy) acetic acid] | 38% |  |  | % INHIBITION OF INDUCED PROLIFERATION AT 20 μM PUFA [1]: 17%
CCCCC/C=C\C/C=C\C/C=C\C/C=C\CCCCOCC(=O)O [β-oxa 23:4 (n-6), Z, Z, Z, Z (5,8, 11, 14-Eicosatetraenyloxy) acetic acid] | 25% |  |  | 
CC/C=C\C/C=C\C/C=C\CCCCCCCCSCC(=O)O [β-thia 21:3 (n-3), Z,Z,Z,Z-(9,12,15-Octadecatrienylthio)acetic acid] | 17% |  |  | % INHIBITION OF INDUCED PROLIFERATION AT 20 μM PUFA [1]: 28%
CCCCC/C=C\C/C=C\C/C=C\CCCCCSCC(=O)O [β-thia 21:3 (n-6), Z,Z,Z,Z-(6,9, 12-Octadecatrienythio)acetica acid] | 17% |  |  | 
CCCCC/C=C\C/C=C\C/C=C\C/C=C\CCCCSCC(=O)O [β-thia 23:4 (n-6), Z,Z,Z,Z-(5,8,11,14-Eicosatetraenylthio) acetic acid] | 35% |  |  | 
CC/C=C\C/C=C\C/C=C\C/C=C\C/C=C\C/C=C\CCCSCC(=O)O [β-thia 25:6 (n-3)] | 90% |  |  | % INHIBITION OF INDUCED PROLIFERATION AT 20 μM PUFA [1]: 97%
CCCCC/C=C\C/C=C\C/C=C\CCCCC(=O)N[C@@H](CC(=O)O)C(=O)O [γ-linolenic acid-aspartic acid] |  | 4.7% | 0% | inhibition at 20 µM ([1]; induced by PHA, PUFA at 20 μM): 15.4%
CCCCC/C=C\C/C=C\C/C=C\CCCCC(=O)NCC(=O)O [γ-linolenic acid-glycine] |  | 21.5% | 0% | inhibition at 20 µM ([1]; induced by PHA, PUFA at 20 μM): 29%
CC/C=C\C/C=C\C/C=C\CCCCCCCCSCCC(=O)O [γ-thia 22:3 (n-3), Z,Z,Z,Z-(9,12,15-Octadecatrienylthio)proponionic acid] | 25% |  |  | 
CCCCC/C=C\C/C=C\C/C=C\CCCCCSCCC(=O)O [γ-thia 22:3 (n-6), Z,Z,Z,Z-(6,9,12-Octadecatrienylthio)propionic acid] | 41% |  |  | 
CCCCC/C=C\C/C=C\C/C=C\C/C=C\CCCCSCCC(=O)O [γ-thia 24:4 (n-6), Z,Z,Z,Z-(5,8,11,14-Eicosatetraenylthio) propionic acid] | 34% |  |  | 
